Assays:
Assay in all cases: whole plant or invertebrate
Assay type in all cases: in vivo
[1] = system: Brown Planthopper (Nilaparvata lugens); conditions: foliar, 120 h, rice seedling foliage dipping, third instar larvae, 5 days after the treatment, 25° C.
Method: Biological Test Example 3: Test (Foliage Dipping) for Controlling Brown Planthopper (Nilaparvata lugens)
Ten sampled rice seedlings were dipped in the chemical solution of the test compounds diluted with water to 200 ppm in an amount of 20 mL and air-dried. After air-drying, the rice seedlings held with urethane in a glass cylinder having an inner diameter of 4.5 cm and a length of 14 cm were set up in a plastic cup containing 40 mL of water. Larvae of brown planthoppers in the third instar larva were released in the glass cylinder. The cylinder was covered with a lid of medicine paper and kept in a chamber at a constant temperature of 25° C. for rearing.

[2] = system: Cotton Aphid (Aphis gossypii); conditions: 120 h, foliar spraying on cucumber leaf, cotton aphid offspring, 5 days after the treatment, 25° C.
Method: Biological Test Example 1: Test (Foliar Spraying) for Controlling Cotton Aphid (Aphis gossypii)
A cucumber leaf cut to a diameter of 3.5 cm was placed on cotton wool moistened with water. Two adult cotton aphids were released there for offspring for 24 hours and the adult insects were then removed. The diluent of the test compounds diluted with water to 200 ppm in an amount of 2 mL was sprayed onto the cucumber leaves with a spray tower. After air-drying, the sample with cotton wool was placed in a plastic cup, which was covered with a lid and kept in a chamber at a constant temperature of 25° C. for rearing.

[3] = system: Diamondback Moth (Plutella xylostella); conditions: foliar, 120 h, cabbage leaf dipping, third instar larvae, 5 days after the treatment, 25° C.
Method: Biological Test Example 2: Test (Foliage Dipping) for Controlling Diamondback Moth (Plutella xylostella)
A cabbage leaf cut to a diameter of 5.0 cm was dipped in the diluent of the test compounds diluted with water to 200 ppm in an amount of 20 mL and air-dried. After air-drying, the cabbage leaf was placed in a plastic cup, and 10 larvae of diamondback moths in the third instar larva were released there. The cup was covered with a lid and kept in a chamber at a constant temperature of 25° C. for rearing.

[4] = system: Brown Planthopper (Nilaparvata lugens); conditions: rice seedling root dipping, third instar larvae released after 2 days, 5 days after the treatment, 25° C.
Method: Biological Test Example 4: Test (Root Dipping) for Controlling Brown Planthopper (Nilaparvata lugens)
Ten sampled rice seedlings held with urethane in a glass cylinder having an inner diameter of 4.5 cm and a length of 14 cm were set up in a plastic cup containing 40 mL of chemical solution diluted with water to 0.8 ppm. After 2 days, 10 larvae of brown planthoppers in the third instar larva were released in the glass cylinder. The glass cylinder was covered with a lid of medicine paper and kept in a chamber at a constant temperature of 25° C. for rearing.

[5] = system: Southern Yellow thrips (Thrips palmi); conditions: 72 h, foliar spraying on cucumber leaf, first instar larvae, 3 days after the treatment, 25° C.
Method: Biological Test Example 5: Test (Foliar Spraying) for Controlling Southern Yellow thrips (Thrips palmi)
A cucumber leaf cut to a diameter of 1.5 cm was placed on cotton wool moistened with water. The diluent of the test compounds diluted with water to 200 ppm in an amount of 2 mL was sprayed onto the cucumber leaves with a spray tower. After air-drying, 5 larvae of southern yellow thrips in the first instar larva were released there and placed with cotton wool in a plastic cup, which was covered with a lid and kept in a chamber at a constant temperature of 25° C. for rearing.

Structure (SMILES)	mortality at 200 ppm [1]	other results
CC(C)=CCON=CCC[n+]1c([O-])c(CC=C(C)C)c(=O)n2ccccc21 [Compound K-7]	≥ 80%	–
CCOC(C)ON=CCC[n+]1c([O-])c(CC=C(C)C)c(=O)n2ccccc21 (stereo not shown) [Compound K-8]	≥ 80%	–
C=CCc1c([O-])[n+](CCC=NOC(C)OCC)c2ccccn2c1=O (stereo not shown) [Compound K-9]	≥ 80%	–
O=c1c(-c2ccccc2)c([O-])[n+](CCC=NOC2COCCO2)c2ccccn12 (stereo not shown) [Compound K-10]	≥ 80%	–
O=c1c(-c2cccc(C(F)(F)F)c2)c([O-])[n+](CCC=NOc2ccc(Cl)nc2)c2ccccn12 [Compound K-2]	–	mortality at 200 ppm [2]: ≥ 80%; mortality at 200 ppm [3]: ≥ 80%; mortality at 0.8 ppm [4]: ≥ 80%; mortality at 200 ppm [5]: ≥ 80%
COc1cccc(-c2c(O)[n+](CCC=N[N+](C)(C)C)c3ccccn3c2=O)c1 [Compound K-1]	≥ 80%	–
CC(C)(C)[S+]([O-])N=CCC[n+]1c([O-])c(-c2cccc(C(F)(F)F)c2)c(=O)n2ccccc21 (stereo not shown) [Compound K-3]	≥ 80%	–

Reference: patent publication US20200017490A1, “Novel Mesoionic Insecticidal Compound” (Nippon Kayaku Kabushiki Kaisha, priority 2016, published 2020)
